Results as given in ChEMBL document CHEMBL1201862, “PubChem BioAssay data set” (2004).
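Cultured in 96-well plates, cells were exposed to test compound for 48 hours across five concentrations. Abbreviation: GI50, concentration required for 50% inhibition of growth.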 The source made the active and inactive calls. Cut-off read from the data, not from the text of the source: active = GI50 up to about 1.1 µM and inactive = higher.

Key:
Assay in all cases: NCI-60 cell line screen, 48 h
786-0 = test system: 786-0
BT-549 = test system: BT-549
K562 = test system: K562
MCF7 = test system: MCF7
NCI/ADR-RES = test system: NCI/ADR-RES
OVCAR-5 = test system: OVCAR-5
SF-268 = test system: SF-268
SF-539 = test system: SF-539
SK-MEL-2 = test system: SK-MEL-2
SN12C = test system: SN12C
SNB-75 = test system: SNB-75
SR = test system: SR
SW-620 = test system: SW-620
U-251 = test system: U-251
UACC-62 = test system: UACC-62
EKVX = test system: EKVX
HL-60 = test system: HL-60
MOLT-4 = test system: MOLT-4
SF-295 = test system: SF-295
SK-OV-3 = test system: SK-OV-3

| SMILES | GI50 (786-0) | GI50 (BT-549) | GI50 (K562) | GI50 (MCF7) | GI50 (NCI/ADR-RES) | GI50 (OVCAR-5) | GI50 (SF-268) | GI50 (SF-539) | GI50 (SK-MEL-2) | GI50 (SN12C) | GI50 (SNB-75) | GI50 (SR) | GI50 (SW-620) | GI50 (U-251) | GI50 (UACC-62) | GI50 (EKVX) | GI50 (HL-60) | GI50 (MOLT-4) | GI50 (SF-295) | GI50 (SK-OV-3) |
| --- | --- | --- | --- | --- | --- | --- | --- | --- | --- | --- | --- | --- | --- | --- | --- | --- | --- | --- | --- | --- |
| CC1C(=O)N=C2C(=CN(Cc3ccccc3)c3ccccc32)C(=O)N1C (configuration not stated) | > 100 µM (inactive) | > 100 µM (inactive) | 1.44 µM (inactive) | > 100 µM (inactive) | > 100 µM (inactive) | > 100 µM (inactive) | > 100 µM (inactive) | > 100 µM (inactive) | > 100 µM (inactive) | > 100 µM (inactive) | > 100 µM (inactive) | 4.26 µM (inactive) | > 100 µM (inactive) | > 100 µM (inactive) | > 100 µM (inactive) |  |  |  |  |  |
| Cc1ccc(S(=O)(=O)N/N=C2\CCCCCCCCCCC2CN(C)C)cc1 (configuration not stated) | 15.9 µM (inactive) | 17.7 µM (inactive) | 13.2 µM (inactive) | 17 µM (inactive) | 14.9 µM (inactive) | 16.3 µM (inactive) | 21.3 µM (inactive) | 17.1 µM (inactive) | 10.6 µM (inactive) | 20.6 µM (inactive) |  | 16.9 µM (inactive) | 17.9 µM (inactive) | 15.9 µM (inactive) | 18.2 µM (inactive) | 22.9 µM (inactive) | 19.4 µM (inactive) | 26.7 µM (inactive) | 16.8 µM (inactive) | 20 µM (inactive) |
| COc1ccc(-c2[nH]c(=O)n(C3OC(CO)C(O)C(O)C3O)c(=O)c2C#N)cc1 (configuration not stated) | > 100 µM (inactive) | > 100 µM (inactive) | > 100 µM (inactive) | > 100 µM (inactive) | > 100 µM (inactive) | > 100 µM (inactive) | > 100 µM (inactive) | > 100 µM (inactive) | > 100 µM (inactive) | > 100 µM (inactive) | > 100 µM (inactive) | > 100 µM (inactive) | > 100 µM (inactive) | > 100 µM (inactive) | > 100 µM (inactive) | > 100 µM (inactive) |  | > 100 µM (inactive) | > 100 µM (inactive) | > 100 µM (inactive) |
| COC(=O)c1ccccc1C1CN=NC12Cc1cc(C)cc(C)c1C2=O (configuration not stated) | > 100 µM (inactive) | 63.4 µM (inactive) | 40.5 µM (inactive) | 27.5 µM (inactive) | 38.4 µM (inactive) | > 100 µM (inactive) | > 100 µM (inactive) | > 100 µM (inactive) | > 100 µM (inactive) | 83.2 µM (inactive) | 23.1 µM (inactive) |  | 62.7 µM (inactive) | 64.1 µM (inactive) | 75.5 µM (inactive) | 70 µM (inactive) | 22 µM (inactive) | 32.1 µM (inactive) | 48.6 µM (inactive) | > 100 µM (inactive) |
| S=C1CCSc2c(ccc3ccccc23)N1 | > 100 µM (inactive) | 67.1 µM (inactive) | 56 µM (inactive) | 72.4 µM (inactive) | > 100 µM (inactive) | > 100 µM (inactive) | 58.6 µM (inactive) |  |  | > 100 µM (inactive) | 74.3 µM (inactive) | 35.6 µM (inactive) |  | > 100 µM (inactive) | 93.8 µM (inactive) | 77.6 µM (inactive) | 33.2 µM (inactive) | 30 µM (inactive) | 45.8 µM (inactive) | 83.9 µM (inactive) |
| OC(C1CO1)C(O)C1CO1 (configuration not stated) | 8.69 µM (inactive) | 120 µM (inactive) | 81.3 µM (inactive) | 11.7 µM (inactive) | 40.7 µM (inactive) | 77.1 µM (inactive) |  | 23.9 µM (inactive) | 61.1 µM (inactive) | 20.7 µM (inactive) | 7.96 µM (inactive) | 1.75 µM (inactive) |  | 27 µM (inactive) | 9.27 µM (inactive) | 90.4 µM (inactive) | 3.21 µM (inactive) | 3.68 µM (inactive) |  | 43.1 µM (inactive) |
| COc1ccc(/C=C2\CSC/C(=C\c3ccc(OC)c(OC)c3OC)C2=O)c(OC)c1OC | 22.3 µM (inactive) | 35.5 µM (inactive) | 23.1 µM (inactive) | 65 µM (inactive) | 23.1 µM (inactive) | > 100 µM (inactive) | 41.6 µM (inactive) | 26.4 µM (inactive) | 54.6 µM (inactive) | 24.2 µM (inactive) |  | 26.9 µM (inactive) | 20.6 µM (inactive) | 39.8 µM (inactive) | 14.9 µM (inactive) | > 100 µM (inactive) | 29.2 µM (inactive) | > 10 µM (inactive) | 25.4 µM (inactive) | > 100 µM (inactive) |
| Cn1c2ccccc2c2cc(N3CCCC3)c3c(c21)C(=O)N(c1ccccc1)C3=O | 33.8 µM (inactive) | > 100 µM (inactive) | > 100 µM (inactive) | 24.3 µM (inactive) | > 100 µM (inactive) | > 100 µM (inactive) | 88.1 µM (inactive) |  |  | > 100 µM (inactive) | 38.4 µM (inactive) | > 100 µM (inactive) | > 100 µM (inactive) | > 100 µM (inactive) | 56.8 µM (inactive) | 86.7 µM (inactive) | > 100 µM (inactive) | > 100 µM (inactive) | > 100 µM (inactive) | 58.9 µM (inactive) |
| COC(=O)[C@@H](Cc1ccccc1)NNC(=O)OC(C)(C)C | > 100 µM (inactive) | > 100 µM (inactive) | > 100 µM (inactive) | > 100 µM (inactive) | > 100 µM (inactive) | > 100 µM (inactive) | > 100 µM (inactive) | > 100 µM (inactive) |  | > 100 µM (inactive) |  | > 100 µM (inactive) | > 100 µM (inactive) | > 100 µM (inactive) | > 100 µM (inactive) | > 100 µM (inactive) | > 100 µM (inactive) | > 100 µM (inactive) | > 100 µM (inactive) | > 100 µM (inactive) |
| O=C(CCCCCCCCC(=O)NN1C(=O)/C(=C\c2ccc(O)c(O)c2)SC1c1ccc(Cl)cc1)NN1C(=O)/C(=C\c2ccc(O)c(O)c2)SC1c1ccc(Cl)cc1 (configuration not stated) | 7.55 µM (inactive) | > 47.3 µM (inactive) | 21.6 µM (inactive) | 38.8 µM (inactive) | 28.8 µM (inactive) | > 86.3 µM (inactive) | 8.67 µM (inactive) | 13.4 µM (inactive) | 20.4 µM (inactive) | 41.7 µM (inactive) | 29.9 µM (inactive) | 2.08 µM (inactive) | 56.5 µM (inactive) | 15.7 µM (inactive) | 14.2 µM (inactive) | 50.8 µM (inactive) |  | 1.82 µM (inactive) | 16.2 µM (inactive) | 22.6 µM (inactive) |
| CCO[C@@]1(COCc2ccccc2)OC(=O)C[C@@H]1N1C(=O)OC[C@@H]1c1ccccc1 | > 100 µM (inactive) | > 100 µM (inactive) | > 100 µM (inactive) | > 100 µM (inactive) | > 100 µM (inactive) | > 100 µM (inactive) | > 100 µM (inactive) | > 100 µM (inactive) | > 100 µM (inactive) | > 100 µM (inactive) | > 100 µM (inactive) |  | > 100 µM (inactive) | > 100 µM (inactive) | > 100 µM (inactive) | > 100 µM (inactive) | 42.8 µM (inactive) | 58.9 µM (inactive) | > 100 µM (inactive) | > 100 µM (inactive) |
| CCOP(=O)(OCC)/C(=C/c1ccccc1)CC(C)=O | > 100 µM (inactive) | > 100 µM (inactive) | > 100 µM (inactive) | > 100 µM (inactive) | > 100 µM (inactive) | > 100 µM (inactive) | > 100 µM (inactive) | > 100 µM (inactive) | > 100 µM (inactive) | > 100 µM (inactive) | > 100 µM (inactive) |  | > 100 µM (inactive) | > 100 µM (inactive) | > 100 µM (inactive) | > 100 µM (inactive) | 22.1 µM (inactive) | > 100 µM (inactive) | > 100 µM (inactive) | > 100 µM (inactive) |
| COc1ccccc1CNC1=Nc2ccncc2S(=O)(=O)N1c1ccccc1 | > 100 µM (inactive) | > 100 µM (inactive) | 71 µM (inactive) | 79.4 µM (inactive) | 57.5 µM (inactive) | > 100 µM (inactive) |  |  |  | > 100 µM (inactive) |  | 92.7 µM (inactive) | > 100 µM (inactive) | 52.1 µM (inactive) | 35.9 µM (inactive) | > 100 µM (inactive) | 41.1 µM (inactive) | 69 µM (inactive) | 41.1 µM (inactive) | > 100 µM (inactive) |
| FC(F)(F)c1cc(N(C2c3ccccc3C=Cc3ccccc32)P(Cl)Cl)cc(C(F)(F)F)c1 | 16.8 µM (inactive) | 0.706 µM (active) | 15.2 µM (inactive) | 20.7 µM (inactive) | 3.62 µM (inactive) | 20 µM (inactive) | 17.2 µM (inactive) | 26.7 µM (inactive) | 18.7 µM (inactive) | 16.9 µM (inactive) | 19.3 µM (inactive) | 16 µM (inactive) | 25.4 µM (inactive) | 17.8 µM (inactive) |  | 17.1 µM (inactive) | 20 µM (inactive) | 13.1 µM (inactive) | 19 µM (inactive) | 25.4 µM (inactive) |
| COc1ccc(-c2cc(=O)c3c(O)c(OC)c(O)cc3o2)cc1O | 4.95 µM (inactive) | 19.3 µM (inactive) | 0.679 µM (active) | 3.79 µM (inactive) | 2.69 µM (inactive) | 32.8 µM (inactive) | 10.7 µM (inactive) | 2.69 µM (inactive) | 3.93 µM (inactive) | 6.68 µM (inactive) | 3.65 µM (inactive) |  | 3.13 µM (inactive) | 5.26 µM (inactive) | 4.04 µM (inactive) | 9.25 µM (inactive) | 1.25 µM (inactive) | 3.19 µM (inactive) | 2.83 µM (inactive) | 6.28 µM (inactive) |
